± gives the expanded uncertainty stated by the source.
Key:
[1] = 97.6 kPa, Liquid; for viscosity: Capillary tube (Ostwald / Ubbelohde) method; for mass density: Vibrating tube method
[2] = xn = mol fraction of the nth substance listed; settings: 97.6 kPa, Liquid, x2 = 0; for viscosity: Capillary tube (Ostwald / Ubbelohde) method; for mass density: Vibrating tube method

CCCCCCCC[n+]1ccn(C)c1.[Cl-] [1-methyl-3-octylimidazolium chloride]
[1]
Settings | mass density [kg/m3] | viscosity [mPa·s]
303.15 K | 1006.2 ± 2.2 | 7339.7
308.15 K | 1003.33 ± 2.1 | 4272.9
313.15 K | 1000.48 ± 2.1 | 2766.9
318.15 K | 997.64 ± 2.1 | 1788.6
323.15 K | 994.82 ± 2.1 | 1198.7
328.15 K | 992 ± 2.1 | 828.3
333.15 K | 989.17 ± 2.1 | 588.69
338.15 K | 986.38 ± 2.1 | 426.28
343.15 K | 983.63 ± 2.1 | 316.66
348.15 K | 980.88 ± 2.1 | 237.14
353.15 K | 978.13 ± 2.1 | 181.41

CC(=O)N(C)C [N,N-dimethylethanamide] + CCCCCCCC[n+]1ccn(C)c1.[Cl-]
[2]
Settings | mass density [kg/m3] | viscosity [mPa·s]
303.15 K | 931.85 ± 2 | 0.89
308.15 K | 927.26 ± 2 | 0.83
313.15 K | 922.66 ± 2 | 0.78
318.15 K | 918.06 ± 2 | 0.74
323.15 K | 913.44 ± 1.9 | 0.7
328.15 K | 908.81 ± 1.9 | 0.66
333.15 K | 904.16 ± 1.9 | 0.63
338.15 K | 899.53 ± 1.9 | 0.6
343.15 K | 894.87 ± 1.9 | 0.57
348.15 K | 890.19 ± 1.9 | 0.54
353.15 K | 885.51 ± 1.9 | 0.52

c1ccncc1 [pyridine] + CCCCCCCC[n+]1ccn(C)c1.[Cl-]
[2]
Settings | mass density [kg/m3] | viscosity [mPa·s]
303.15 K | 973.09 ± 1.9 | 0.84
308.15 K | 968.06 ± 1.9 | 0.79
313.15 K | 963.02 ± 1.9 | 0.74
318.15 K | 957.97 ± 1.9 | 0.7
323.15 K | 952.9 ± 1.9 | 0.66
328.15 K | 947.82 ± 1.9 | 0.62
333.15 K | 942.72 ± 1.9 | 0.59
338.15 K | 937.6 ± 1.9 | 0.56
343.15 K | 932.46 ± 1.9 | 0.53
348.15 K | 927.3 ± 1.9 | 0.51
353.15 K | 922.12 ± 1.9 | 0.48

C[S+](C)[O-] [dimethyl sulfoxide] + CCCCCCCC[n+]1ccn(C)c1.[Cl-]
[2]
Settings | mass density [kg/m3] | viscosity [mPa·s]
303.15 K | 1090.29 ± 2.2 | 1.8
308.15 K | 1085.28 ± 2.2 | 1.66
313.15 K | 1080.3 ± 2.2 | 1.53
318.15 K | 1075.31 ± 2.2 | 1.41
323.15 K | 1070.32 ± 2.2 | 1.3
328.15 K | 1065.33 ± 2.1 | 1.21
333.15 K | 1060.34 ± 2.1 | 1.13
338.15 K | 1055.34 ± 2.1 | 1.06
343.15 K | 1050.35 ± 2.1 | 0.99
348.15 K | 1045.34 ± 2.1 | 0.93
353.15 K | 1040.33 ± 2.1 | 0.88

From the NIST ThermoML archive (doi:10.1021/acs.jced.7b00002)
